From patent publication US10934298B2, “Substituted pyrazolo[1,5-a]pyrimidines for the treatment of medical disorders” (BIAL—BioTech Investments, Inc., priority 2016, dated 2021)

Target: T1, glucocerebrosidase (Gcase) (Homo sapiens, UniProt P04062)
T1 construct: micellar solution containing 10 nM GCase and 100 nM saposin C
T1 sequence (P04062 40-536): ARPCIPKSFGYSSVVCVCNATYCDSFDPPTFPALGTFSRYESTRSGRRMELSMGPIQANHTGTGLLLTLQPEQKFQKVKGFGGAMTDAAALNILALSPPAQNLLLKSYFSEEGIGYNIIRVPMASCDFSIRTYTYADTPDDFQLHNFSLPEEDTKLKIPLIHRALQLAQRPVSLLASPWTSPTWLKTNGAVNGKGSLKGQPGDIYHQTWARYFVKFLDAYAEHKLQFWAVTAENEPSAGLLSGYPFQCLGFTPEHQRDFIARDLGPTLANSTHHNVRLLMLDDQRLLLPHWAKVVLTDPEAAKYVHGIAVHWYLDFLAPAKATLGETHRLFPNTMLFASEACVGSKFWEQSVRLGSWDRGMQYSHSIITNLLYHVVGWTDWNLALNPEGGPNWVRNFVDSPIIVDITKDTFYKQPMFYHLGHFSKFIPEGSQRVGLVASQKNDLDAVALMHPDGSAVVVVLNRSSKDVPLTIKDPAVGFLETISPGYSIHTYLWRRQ
Test: Glucocerebrosidase (Gcase) activation assay with 4-methylumbelliferyl-beta-D-glucopyranoside substrate, saposin C and phosphatidylserine/triton micelles, fluorescence readout
Type: biochemical
Method in brief: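 Test compounds are first screened at 1.0 and 0.1 μM final, then titrated in 8 points (3-fold from 5 μM) against human GCase with saposin C in phosphatidylserine/triton X-100 micelles at pH 4.7. Reactions run 15 min at room temperature, with fluorescence read at 365/440 nm.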

Percent Gcase Activation, 0.1 μM Test Compound (test compound at 0.1 μM) | Percent Gcase Activation, 1 μM Test Compound (test compound at 1.0 μM) | Percent Gcase Activation, 0.1 μM Test Compound (0.1 μM test compound) | Percent Gcase Activation, 1 μM Test Compound (1 μM test compound) | Structure (SMILES) | further results
*** (greater than 20% Gcase activation) | +++ (Gcase activation greater than 60%) | – | – | Cc1cc(-c2cccc(Cl)n2)nc2c(C(=O)N[C@@H](C)C3CC3)cnn12 [III-131] | –
*** (greater than 20% Gcase activation) | +++ (Gcase activation greater than 60%) | – | – | Cc1cncc(-c2cc(C)n3ncc(C(=O)N[C@@H](C4CC4)C(F)(F)F)c3n2)c1 [III-277] | –
– | – | – | – | Cc1cc(-c2cccc(F)c2)nc2c(C(=O)N[C@@H](C)C3CC3)cnn12 [III-56] | Percent Gcase Activation, 0.1 μM Test Compound (0.1 μM test compound, Table 3A): *** (greater than 20% Gcase activation); Percent Gcase Activation, 1 μM Test Compound (1 μM test compound, Table 3A): +++ (Gcase activation greater than 60%)
– | – | *** (greater than 20% Gcase activation) | +++ (Gcase activation greater than 60%) | Cc1cc(-c2cc(F)c3ocnc3c2)nc2c(C(=O)N[C@@H](C)C(F)(F)F)cnn12 [III-297] | –
– | – | – | – | Cc1cc(C)n2ncc(C(=O)N[C@H](C3CC3)C(F)(F)F)c2n1 [III-10] | Percent Gcase Activation, 0.1 μM Test Compound (0.1 μM test compound, Table 3A): ** (Gcase activation in the range of 10% up to 20%); Percent Gcase Activation, 1 μM Test Compound (1 μM test compound, Table 3A): +++ (Gcase activation greater than 60%)
– | – | * (less than 10% Gcase activation) | + (less than 30% Gcase activation) | Cc1ncccc1-c1cc(C)n2ncc(C(=O)N[C@@H](C3CC3)C(F)(F)F)c2n1 [III-377] | –
– | – | *** (greater than 20% Gcase activation) | +++ (Gcase activation greater than 60%) | Cc1cc(-c2cncc(Cl)c2)nc2c(C(=O)N[C@H](C)C3CC3)cnn12 [III-291] | –
– | – | – | – | Cc1cc(-c2ccncc2)nc2c(C(=O)NC(C)C3CC3)cnn12 (centres unmarked) [III-28] | Percent Gcase Activation, 0.1 μM Test Compound (0.1 μM test compound, Table 3A): * (less than 10% Gcase activation); Percent Gcase Activation, 1 μM Test Compound (1 μM test compound, Table 3A): ++ (Gcase activation in the range of 30% up to 60%)
– | – | * (less than 10% Gcase activation) | +++ (Gcase activation greater than 60%) | Cc1cc(-c2cccc3nc[nH]c23)nc2c(C(=O)NC(C3CC3)C(F)(F)F)cnn12 (centres unmarked) [III-308] | –
*** (greater than 20% Gcase activation) | +++ (Gcase activation greater than 60%) | – | – | Cc1ccc(-c2cc(C)n3ncc(C(=O)N[C@@H](C4CC4)C(F)(F)F)c3n2)cn1 [III-280] | –
– | – | – | – | Cc1cc(N2CCC(F)(F)CC2)nc2c(C(=O)NC(C)C3CC3)cnn12 (centres unmarked) [III-60] | Percent Gcase Activation, 0.1 μM Test Compound (0.1 μM test compound, Table 3A): * (less than 10% Gcase activation); Percent Gcase Activation, 1 μM Test Compound (1 μM test compound, Table 3A): ++ (Gcase activation in the range of 30% up to 60%)
– | – | *** (greater than 20% Gcase activation) | +++ (Gcase activation greater than 60%) | Cc1cc(-c2cncc(Cl)c2)nc2c(C(=O)NC(C)(C)C3CC3)cnn12 [III-292] | –
*** (greater than 20% Gcase activation) | +++ (Gcase activation greater than 60%) | – | – | Cc1cc(-c2ccns2)nc2c(C(=O)N[C@H](C3CC3)C(F)(F)F)cnn12 [III-100] | –
– | – | *** (greater than 20% Gcase activation) | +++ (Gcase activation greater than 60%) | Cc1cc(-c2cnccc2C(F)(F)F)nc2c(C(=O)N[C@H](C3CC3)C(F)(F)F)cnn12 [III-353] | –
– | – | – | – | Cc1cc(-c2cccc(Cl)c2)nc2c(C(=O)N[C@@H](C)C3CC3)cnn12 [III-65] | Percent Gcase Activation, 0.1 μM Test Compound (0.1 μM test compound, Table 3A): *** (greater than 20% Gcase activation); Percent Gcase Activation, 1 μM Test Compound (1 μM test compound, Table 3A): +++ (Gcase activation greater than 60%)
*** (greater than 20% Gcase activation) | +++ (Gcase activation greater than 60%) | – | – | COc1ccc(-c2cc(C)n3ncc(C(=O)N[C@@H](C)C(F)(F)F)c3n2)cn1 [III-273] | –

Percent Gcase Activation, 0.1 μM Test Compound (test compound at 0.1 μM) | Percent Gcase Activation, 1 μM Test Compound (test compound at 1.0 μM) | Percent Gcase Activation, 0.1 μM Test Compound (0.1 μM test compound) | Percent Gcase Activation, 1 μM Test Compound (1 μM test compound) | Structure (SMILES) | further results
*** (greater than 20% Gcase activation) | +++ (Gcase activation greater than 60%) | – | – | Cc1cc(-c2cncc(Cl)c2)nc2c(C(=O)NC(C)C(F)(F)F)cnn12 (centres unmarked) [III-200] | –
– | – | * (less than 10% Gcase activation) | +++ (Gcase activation greater than 60%) | Cc1cc(-c2cccnc2C#N)nc2c(C(=O)NC(C)(C)C3CC3)cnn12 [III-371] | –
– | – | – | – | Cc1cc(-c2cccnc2)n2ncc(C(=O)N[C@@H](C)C3CC3)c2n1 [III-27] | Percent Gcase Activation, 0.1 μM Test Compound (0.1 μM test compound, Table 3A): * (less than 10% Gcase activation); Percent Gcase Activation, 1 μM Test Compound (1 μM test compound, Table 3A): + (less than 30% Gcase activation)
– | – | *** (greater than 20% Gcase activation) | +++ (Gcase activation greater than 60%) | Cc1cc(-c2cnccc2C(F)(F)F)nc2c(C(=O)N[C@@H](C3CC3)C(F)(F)F)cnn12 [III-354] | –
– | – | *** (greater than 20% Gcase activation) | +++ (Gcase activation greater than 60%) | Cc1cc(N2CC(C(C)C)OC2=O)nc2c(C(=O)NC(c3ccccc3)C(F)(F)F)cnn12 (centres unmarked) [III-313] | –
*** (greater than 20% Gcase activation) | +++ (Gcase activation greater than 60%) | – | – | Cc1coc(-c2cc(C)n3ncc(C(=O)NC(C4CC4)C(F)(F)F)c3n2)n1 (centres unmarked) [III-254] | –
– | – | – | – | Cc1cc(-c2ccc(F)cc2)nc2c(C(=O)N[C@@H](C)C3CC3)c(Cl)nn12 [III-32] | Percent Gcase Activation, 0.1 μM Test Compound (0.1 μM test compound, Table 3A): ** (Gcase activation in the range of 10% up to 20%); Percent Gcase Activation, 1 μM Test Compound (1 μM test compound, Table 3A): +++ (Gcase activation greater than 60%)
– | – | – | – | CCOc1cccc(-c2cc(C)n3ncc(C(=O)NC(C)C(F)(F)F)c3n2)c1 (centres unmarked) [III-76] | Percent Gcase Activation, 0.1 μM Test Compound (0.1 μM test compound, Table 3A): *** (greater than 20% Gcase activation); Percent Gcase Activation, 1 μM Test Compound (1 μM test compound, Table 3A): +++ (Gcase activation greater than 60%)
– | – | *** (greater than 20% Gcase activation) | +++ (Gcase activation greater than 60%) | Cc1cc(-c2cccc(F)c2)nc2c(C(=O)N[C@H](C)C(F)(F)F)cnn12 [III-361] | –
*** (greater than 20% Gcase activation) | +++ (Gcase activation greater than 60%) | – | – | COc1cc(C#N)cc(-c2cc(C)n3ncc(C(=O)N[C@@H](C)C4CC4)c3n2)c1 [III-129] | –
– | – | – | – | Cc1cc(C)n2ncc(C(=O)Nc3ccc4c(c3)CCC4)c2n1 [IV-5] | Percent Gease Activation, 0.1 μM Test Compound (0.1 μM test compound, Table 4): ** (Gcase activation in the range of 10% up to 20%); Percent Gease Activation, 1 μM Test Compound (1 μM test compound, Table 4): +++ (Gcase activation greater than 60%)
*** (greater than 20% Gcase activation) | +++ (Gcase activation greater than 60%) | – | – | Cc1cc(-c2cc(C)n3ncc(C(=O)N[C@@H](C4CC4)C(F)(F)F)c3n2)sn1 [III-216] | –
– | – | * (less than 10% Gcase activation) | + (less than 30% Gcase activation) | Cc1nsc(C)c1-c1cc(C)n2ncc(C(=O)N[C@@H](C3CC3)C(F)(F)F)c2n1 [III-386] | –
– | – | – | – | Cc1cc(-c2ccc(F)nc2)nc2c(C(=O)NC(C3CC3)C(F)(F)F)cnn12 (centres unmarked) [III-84] | Percent Gcase Activation, 0.1 μM Test Compound (0.1 μM test compound, Table 3A): *** (greater than 20% Gcase activation); Percent Gcase Activation, 1 μM Test Compound (1 μM test compound, Table 3A): +++ (Gcase activation greater than 60%)
– | – | – | – | Cc1cc(Cl)n2ncc(C(=O)NC(C)(C)C3CC3)c2n1 [III-14] | Percent Gcase Activation, 0.1 μM Test Compound (0.1 μM test compound, Table 3A): ** (Gcase activation in the range of 10% up to 20%); Percent Gcase Activation, 1 μM Test Compound (1 μM test compound, Table 3A): ++ (Gcase activation in the range of 30% up to 60%)

Structure (SMILES) | Percent Gcase Activation, 0.1 μM Test Compound (test compound at 0.1 μM) | Percent Gcase Activation, 1 μM Test Compound (test compound at 1.0 μM) | Percent Gcase Activation, 0.1 μM Test Compound (0.1 μM test compound) | Percent Gcase Activation, 1 μM Test Compound (1 μM test compound) | further results
Cc1cc(N2CCN(c3ccccc3)C2=O)nc2c(C(=O)N[C@H](C3CC3)C(F)(F)F)cnn12 [III-330] | – | – | ** (Gcase activation in the range of 10% up to 20%) | ++ (Gcase activation in the range of 30% up to 60%) | –
Cc1cc(-c2cccc(C#N)n2)nc2c(C(=O)NC(C3CC3)C(F)(F)F)cnn12 (centres unmarked) [III-133] | ** (Gcase activation in the range of 10% up to 20%) | +++ (Gcase activation greater than 60%) | – | – | –
Cc1cc(N2CC(C)(C)N(C)C2=O)nc2c(C(=O)N[C@H](C3CC3)C(F)(F)F)cnn12 [III-357] | – | – | ** (Gcase activation in the range of 10% up to 20%) | +++ (Gcase activation greater than 60%) | –
Cc1ccc(-c2cc(C)n3ncc(C(=O)NC(C)C(F)(F)F)c3n2)cn1 (centres unmarked) [III-283] | – | – | * (less than 10% Gcase activation) | ++ (Gcase activation in the range of 30% up to 60%) | –
Cc1cc(NC2CC2)nc2c(C(=O)NC(C)C(F)(F)F)cnn12 (centres unmarked) [III-165] | ** (Gcase activation in the range of 10% up to 20%) | +++ (Gcase activation greater than 60%) | – | – | –
Cc1cc(N2CCN(C(C)C)C2=O)nc2c(C(=O)NC(C)(C)C3CC3)cnn12 [III-230] | * (less than 10% Gcase activation) | ++ (Gcase activation in the range of 30% up to 60%) | – | – | –
